Experiments:
ITK = biological target: T1, ITK (Homo sapiens, UniProt Q08881); assay: ADP-Glo + ITK Kinase enzyme system kit, inhibitory activity against ITK; format: biochemical; details: ITK enzyme 0.4 ng/ul, ATP final concentration of 25 ul, 30° C. for 1 hour, luminescence, duplicate
T1 construct: purchased Promega Corporation
T1 sequence (Q08881 1-620): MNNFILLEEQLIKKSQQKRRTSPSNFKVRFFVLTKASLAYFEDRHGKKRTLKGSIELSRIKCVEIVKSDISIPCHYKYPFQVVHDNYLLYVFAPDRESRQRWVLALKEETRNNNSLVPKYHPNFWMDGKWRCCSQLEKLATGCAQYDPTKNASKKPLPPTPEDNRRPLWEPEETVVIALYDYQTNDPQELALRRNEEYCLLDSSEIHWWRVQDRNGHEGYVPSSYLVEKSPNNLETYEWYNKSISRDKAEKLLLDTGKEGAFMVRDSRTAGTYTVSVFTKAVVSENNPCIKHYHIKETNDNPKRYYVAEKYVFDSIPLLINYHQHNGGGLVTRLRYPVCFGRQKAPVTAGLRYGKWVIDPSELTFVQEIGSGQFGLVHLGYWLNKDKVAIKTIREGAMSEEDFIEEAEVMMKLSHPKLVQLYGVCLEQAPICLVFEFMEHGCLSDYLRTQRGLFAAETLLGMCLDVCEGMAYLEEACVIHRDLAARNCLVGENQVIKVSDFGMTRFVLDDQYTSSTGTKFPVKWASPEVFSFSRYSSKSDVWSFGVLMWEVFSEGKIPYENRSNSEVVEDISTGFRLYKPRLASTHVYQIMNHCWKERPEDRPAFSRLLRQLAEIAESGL
Experimental: (§1) Inhibitory activities against BTK and ITK were measured for the compounds prepared in the above Examples as follows.
The inhibitory activity against ITK was evaluated using ‘ADP-Glo™+ITK Kinase enzyme system’ kit (Promega Corporation). In a white 96-well plate, 10 ul of ITK enzyme prepared so as to have a final concentration of 0.4 ng/ul was mixed with 5 ul of compounds having a final concentration of 1 uM in the case of evaluating a single concentration of compound and a concentration of 1000, 300, 100, 30, 10, 3, 1, 0.3, 0.1 and 0.03 nM in the case of IC50 evaluation, and then reacted at room temperature for 15 minutes. To the plate on which reactions were completed, 5 ul of substrate and 5 ul of ATP prepared so as to have a final concentration of […] added and then allowed to react at 30° C. for 1 hour. All wells of the plate were treated with 25 ul of ADP-Glo™ reagent and then allowed to react at 30° C. for 40 minutes. After that, all wells were treated with 50 ul of kinase detection buffer, and then allowed to react at 30° C. for 30 minutes under light shielding conditions. For the plate on which all reactions were completed, luminescence was measured and the results were calculated. Evaluation was carried out in duplicate, and negative control and positive control were calculated depending on whether or not the enzyme was added without treatment of the compound. The IC50 was calculated based on the calculated values.

BTK = biological target: T2, BTK (Homo sapiens, UniProt Q06187); assay: ADP-Glo + BTK Kinase enzyme system kit, inhibitory activity against BTK; format: biochemical; details: BTK enzyme 1 ng/ul, ATP 10 μM, 30° C. for 1 hour, luminescence, duplicate
T2 construct: purchased Promega Corporation
Experimental: as §1
The inhibitory activities against BTK were evaluated using ‘ADP-Glo™+BTK Kinase enzyme system’ kit (Promega Corporation). In a white 96-well plate, 10 ul of BTK enzyme prepared so as to have a final concentration of 1 ng/ul was mixed with 5 μl of compounds having a final concentration of […] the case of evaluating a single concentration of compound and a concentration of 1000, 300, 100, 30, 10, 3, 1, 0.3, 0.1 and 0.03 nM in the case of IC50 evaluation, and then reacted at room temperature for 15 minutes. 5 ul of substrate and 5 ul of ATP prepared so as to have a final concentration of 10 μM were added to the plate on which reactions were completed, and then allowed to react at 30° C. for 1 hour. All wells of the plate were treated with 25 ul of ADP-Glo™ reagent and allowed to react at 30° C. for 40 minutes. After that, all wells were treated with 50 ul of kinase detection buffer, and then reacted at 30° C. for 30 minutes under light shielding conditions. For the plate on which all reactions were completed, luminescence was measured and the results were calculated. Evaluation was carried out in duplicate, and negative control and positive control were calculated depending on whether or not the enzyme was added without treatment of the compound. The IC50 was calculated based on the calculated values.

T2 sequence (Q06187 whole entry): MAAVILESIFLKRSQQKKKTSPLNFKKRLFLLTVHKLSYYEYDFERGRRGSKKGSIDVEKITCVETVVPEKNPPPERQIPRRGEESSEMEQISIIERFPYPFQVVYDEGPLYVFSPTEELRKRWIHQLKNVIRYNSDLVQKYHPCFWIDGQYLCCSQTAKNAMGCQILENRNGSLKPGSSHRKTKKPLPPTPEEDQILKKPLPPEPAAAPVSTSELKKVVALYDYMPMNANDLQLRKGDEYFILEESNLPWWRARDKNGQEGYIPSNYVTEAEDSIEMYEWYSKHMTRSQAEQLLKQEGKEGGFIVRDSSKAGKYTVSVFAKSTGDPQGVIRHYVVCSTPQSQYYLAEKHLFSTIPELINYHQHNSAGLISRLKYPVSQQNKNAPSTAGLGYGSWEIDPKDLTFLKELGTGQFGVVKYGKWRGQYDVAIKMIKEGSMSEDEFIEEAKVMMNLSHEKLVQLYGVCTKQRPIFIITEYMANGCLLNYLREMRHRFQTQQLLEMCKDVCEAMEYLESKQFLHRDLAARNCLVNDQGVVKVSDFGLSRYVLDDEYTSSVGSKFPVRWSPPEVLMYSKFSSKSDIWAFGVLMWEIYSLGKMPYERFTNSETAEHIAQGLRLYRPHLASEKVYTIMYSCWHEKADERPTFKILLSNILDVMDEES

Row | SMILES | IC50 (ITK) | IC50 (BTK)
1 | C=CC(=O)Nc1cccc(-c2cc(CN3CCN(C(C)C)CC3)cc(Nc3ncc(C)s3)n2)c1 [Compound 54] | 2.9 nM | 1.9 nM
2 | C=CC(=O)Nc1cccc(-c2cc(CN3CCCN(C)CC3)cc(Nc3ncc(C)s3)n2)c1 [Compound 55, N-(3-(4-((4-methyl-1,4-diazepan-1-yl)methyl)-6-(5-methylthiazol-2-ylamino)pyridin-2-yl)phenyl)acrylamide] | 13.4 nM | 10.6 nM
3 | C=CC(=O)Nc1cc(-c2cc(CN3CCOCC3)cc(Nc3ncc(C)s3)n2)ccc1F [Compound 56, N-(2-fluoro-5-(6-((5-methylthiazol-2-yl)amino)-4-(morpholinomethyl)pyridin-2-yl)phenyl)acrylamide] | 4.2 nM | 1.8 nM
4 | C=CC(=O)Nc1cc(F)cc(-c2cc(CN3CCOCC3)cc(Nc3ncc(C)s3)n2)c1 [Compound 57, N-(3-fluoro-5-(6-((5-methylthiazol-2-yl)amino)-4-(morpholinomethyl)pyridin-2-yl)phenyl)acrylamide] | 23.2 nM | > 6.3 nM
5 | C=CC(=O)Nc1cc(-c2cc(CN3CCOCC3)cc(Nc3ncc(C)s3)n2)ccc1C [Compound 58] | 14.1 nM | 6.4 nM
6 | C=CC(=O)Nc1ccc(C)c(-c2cc(CN3CCOCC3)cc(Nc3ncc(C)s3)n2)c1 [Compound 59, N-(4-methyl-3-(6-((5-methylthiazol-2-yl)amino)-4-(morpholinomethyl)pyridin-2-yl)phenyl)acrylamide] | 18.1 nM | 8.3 nM
7 | C=CC(=O)Nc1cccc(-c2cc(CN3CCN(C(C)=O)CC3)cc(Nc3ncc(C)s3)n2)c1 [Compound 60, N-(3-(4-((4-acetylpiperazin-1-yl)methyl)-6-(5-methylthiazol-2-ylamino)pyridin-2-yl)phenyl)acrylamide] | 2.2 nM | 1.9 nM
8 | C=CC(=O)Nc1cccc(-c2cc(CN3CCN(C(=O)CC)CC3)cc(Nc3ncc(C)s3)n2)c1 [Compound 61, N (3(6(5methylthiazol-2-ylamino)-4-((4-propionylpiperazin-1-yl)methyl)pyridin-2-yl)phenyl)acrylamide] | 13.5 nM | 9.5 nM
9 | C=CC(=O)Nc1cccc(-c2cc(CN3CCN(C(=O)C4CC4)CC3)cc(Nc3ncc(C)s3)n2)c1 [Compound 63, N (3(4((4-(cyclopropanecarbonyl)piperazin-1-yl)methyl)-6-(5-methylthiazol-2-ylamino)pyridin-2-yl)phenyl)acrylamide] | 9 nM | 6.7 nM
10 | C=CC(=O)Nc1ccc(Cl)c(-c2cc(CN3CCOCC3)cc(Nc3ncc(C)s3)n2)c1 [Compound 64] | 15.7 nM | 18.1 nM
11 | C=CC(=O)N(C)c1cccc(-c2cc(CN3CCOCC3)cc(Nc3ncc(C)s3)n2)c1 [Compound 65] | 2.1 nM | 1.9 nM
12 | C=CC(=O)N(CC)c1cccc(-c2cc(CN3CCOCC3)cc(Nc3ncc(C)s3)n2)c1 [Compound 66, N-ethyl-N-(3-(6-(5-methylthiazol-2-ylamino)-4-(morpholinomethyl)pyridin-2-yl)phenyl)acrylamide] | 3.7 nM | 1.3 nM
13 | C=CC(=O)Nc1cccc(-c2cc(CN3CCOCC3)cc(NC(=O)NC)n2)c1 [Compound 67, N-(3-(6-(3-methylureido)-4-(morpholinomethyl)pyridin-2-yl)phenyl)acrylamide] | > 200 nM | 64.1 nM
14 | C=CC(=O)Nc1cccc(-c2cc(CN3CCOCC3)cc(NC(=O)CC)n2)c1 [Compound 68, N-(3-(4-(morpholinomethyl)-6-propionamidopyridin-2-yl)phenyl)acrylamide] | > 1000 nM | > 400 nM
15 | C=CC(=O)Nc1cccc(-c2cc(Cc3cccnc3)cc(Nc3cc(C)[nH]n3)n2)c1 [Compound 72, N-(3-(6-((5-methyl-1H-pyrazol-3-yl)amino)-4-(pyridin-3-ylmethyl)pyridin-2-yl)phenyl)acrylamide] | 8 nM | 3.3 nM
16 | C=CC(=O)Nc1cccc(-c2cc(Cc3cccnc3)cc(Nc3ncc(C)s3)n2)c1 [Compound 73, N-(3-(6-((5-methylthiazol-2-yl)amino)-4-(pyridin-3-ylmethyl)pyridin-2-yl)phenyl)acrylamide] | 2.3 nM | 2.5 nM
